Values quoted from earlier work, collected in PMC7155743 (The journal of physical chemistry. B, 2019).
Entries after “also recorded” stand apart in the source; their conditions may differ.

Assays:
[1] = aqueous solution
[2] = not given; remark: listed apart in the source

Substance	appearance of peptide in water at 1 mg/mL	aggregation state by DOSY [1]	fibrillization after incubation in water for 3 h ([2]; water, 3 h)	solubility (qualitative) [2]
D2Q10K2 [DQ10]	clear solutions	predominately monomeric; also recorded: predominantly monomeric	–	–
D2Q10K2 [NDQ10]	clear solutions	predominately monomeric; also recorded: predominantly monomeric	–	–
K2Q9PGQ4AQ4PGQ9PGQ9K2 [NDPGQ9A]	–	–	do not observe signs of NDPGQ9A fibrillization	–
K2Q9PGQ4AQ4PGQ9PGQ9K2 [PGQ9A]	–	–	–	insoluble
